Source: ChEMBL document CHEMBL5380861, “Design and Synthesis of Orexin 1 Receptor-Selective Agonists” (J Med Chem, 2023)

Key:
Orexin receptor type 2 [1] = molecular target: T1, Orexin receptor type 2 (Homo sapiens, UniProt O43614)
T1 sequence (O43614 whole entry): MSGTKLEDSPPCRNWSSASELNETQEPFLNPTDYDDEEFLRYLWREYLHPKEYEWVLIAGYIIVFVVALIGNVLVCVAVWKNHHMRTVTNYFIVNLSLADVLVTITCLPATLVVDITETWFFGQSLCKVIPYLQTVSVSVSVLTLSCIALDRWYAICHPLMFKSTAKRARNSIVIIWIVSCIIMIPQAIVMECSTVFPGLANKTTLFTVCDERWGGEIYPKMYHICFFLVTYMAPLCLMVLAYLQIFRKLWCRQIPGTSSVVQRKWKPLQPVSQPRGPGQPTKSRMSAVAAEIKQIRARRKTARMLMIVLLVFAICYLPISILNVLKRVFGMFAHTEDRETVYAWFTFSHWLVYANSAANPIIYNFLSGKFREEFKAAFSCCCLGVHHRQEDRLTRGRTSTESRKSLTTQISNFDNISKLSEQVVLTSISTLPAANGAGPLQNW
Description: Agonist activity at human OX2R expressed in CHO-K1 cells assessed as increase in intracellular calcium

[2] = molecular target: T2, Orexin/Hypocretin receptor type 1 (Homo sapiens, UniProt O43613)
T2 sequence (O43613 whole entry): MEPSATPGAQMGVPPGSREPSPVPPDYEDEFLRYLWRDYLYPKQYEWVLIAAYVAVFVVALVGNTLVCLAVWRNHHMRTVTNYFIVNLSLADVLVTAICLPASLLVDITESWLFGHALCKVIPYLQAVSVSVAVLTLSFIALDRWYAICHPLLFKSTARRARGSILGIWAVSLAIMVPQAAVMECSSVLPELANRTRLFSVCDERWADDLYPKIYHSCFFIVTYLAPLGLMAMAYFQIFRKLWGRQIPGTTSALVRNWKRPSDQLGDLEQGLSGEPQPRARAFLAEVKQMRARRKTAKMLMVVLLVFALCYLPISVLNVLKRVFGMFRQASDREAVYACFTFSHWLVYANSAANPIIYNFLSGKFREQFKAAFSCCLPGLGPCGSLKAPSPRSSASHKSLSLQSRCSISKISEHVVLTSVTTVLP
Description: Agonist activity at human OX1R expressed in CHO-K1 cells assessed as increase in intracellular calcium

[3] = molecular target: T3, Orexin/Hypocretin receptor type 1 (Mus musculus, UniProt P58307); assay: Agonist activity at mouse OX1R expressed in HEK293 cells by AP-TGFalpha reporter assay
T3 sequence (P58307 whole entry): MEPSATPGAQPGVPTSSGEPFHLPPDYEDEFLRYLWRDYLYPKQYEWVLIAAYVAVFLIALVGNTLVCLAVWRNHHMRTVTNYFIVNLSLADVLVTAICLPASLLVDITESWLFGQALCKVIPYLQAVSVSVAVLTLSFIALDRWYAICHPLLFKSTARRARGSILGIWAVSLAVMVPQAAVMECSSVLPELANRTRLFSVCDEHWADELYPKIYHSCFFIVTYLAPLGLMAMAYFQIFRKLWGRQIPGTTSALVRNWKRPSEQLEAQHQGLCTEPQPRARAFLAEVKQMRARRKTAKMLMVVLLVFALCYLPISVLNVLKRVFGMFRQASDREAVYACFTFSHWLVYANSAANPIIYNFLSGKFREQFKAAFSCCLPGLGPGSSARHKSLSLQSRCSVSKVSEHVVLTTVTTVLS

[4] = Drug concentration in mouse brain at 40 mg/kg, sc; assay type: ADME, organism-based; conditions: in vivo
Orexin receptor type 2 [5] = molecular target: T4, Orexin receptor type 2 (Mus musculus, UniProt P58308); assay: Agonist activity at mouse OX2R expressed in HEK293 cells by AP-TGFalpha reporter assay
T4 sequence (P58308 whole entry): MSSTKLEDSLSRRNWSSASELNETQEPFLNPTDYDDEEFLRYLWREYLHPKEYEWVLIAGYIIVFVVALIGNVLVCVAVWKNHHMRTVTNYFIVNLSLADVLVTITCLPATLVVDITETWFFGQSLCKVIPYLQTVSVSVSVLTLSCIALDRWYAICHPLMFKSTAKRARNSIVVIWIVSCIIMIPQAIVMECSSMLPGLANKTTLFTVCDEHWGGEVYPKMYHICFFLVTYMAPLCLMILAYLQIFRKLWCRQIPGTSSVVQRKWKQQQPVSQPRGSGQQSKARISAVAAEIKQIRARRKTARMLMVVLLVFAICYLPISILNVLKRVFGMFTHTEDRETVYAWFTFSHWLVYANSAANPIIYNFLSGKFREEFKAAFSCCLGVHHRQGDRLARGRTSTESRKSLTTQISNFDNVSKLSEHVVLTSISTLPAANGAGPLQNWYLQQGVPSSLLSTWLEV

[6] = Drug concentration in mouse plasma at 40 mg/kg, sc; assay type: ADME, organism-based; conditions: in vivo
[7] = Ratio of drug concentration in mouse brain to plasma at 40 mg/kg, sc
[8] = molecular target: T2, Orexin/Hypocretin receptor type 1; assay: Agonist activity at OX1R (unknown origin)

EC50 (Orexin receptor type 2 [1]) | EC50 [2] | SMILES | other results
275 nM | 187 nM | COc1cccc(CC(=O)N(C)C2CCCc3ccc(NS(=O)(=O)c4cc(/C=C/C(=O)N(C)c5ccncc5)ccc4OC)cc32)c1 (centres undefined) | 
> 10000 nM | 501 nM | CNC(=O)/C=C/c1ccc(OC)c(S(=O)(=O)Nc2ccc3c(c2)C(N(C)C(=O)Cc2cccc(OC)c2)CCC3)c1 (centres undefined) | 
1290 nM | 5920 nM | COc1cccc(CC(=O)N(C)C2CCCc3ccc(NS(=O)(=O)c4cc(-c5ccccc5)ccc4OC)cc32)c1 (centres undefined) | 
 | 3590 nM | COc1cccc(CC(=O)N(C)[C@H]2CCCc3ccc(NS(=O)(=O)c4cc(/C=C/C(=O)Nc5ccncc5)ccc4OC)cc32)c1 | 
3290 nM | 472 nM | COc1cccc(CC(=O)N(C)C2CCCc3ccc(NS(=O)(=O)c4cc(/C=C/C(=O)Nc5ccccc5)ccc4OC)cc32)c1 (centres undefined) | 
> 10000 nM | 573 nM | CCCCNC(=O)/C=C/c1ccc(OC)c(S(=O)(=O)Nc2ccc3c(c2)C(N(C)C(=O)Cc2cccc(OC)c2)CCC3)c1 (centres undefined) | 
1020 nM |  | COc1cccc(CC(=O)N(C)C2CCCc3ccc(NS(=O)(=O)c4cc(CCCC(=O)N(C)C)ccc4OC)cc32)c1 (centres undefined) | 
2410 nM | 271 nM | COc1cccc(CC(=O)N(C)C2CCCc3ccc(NS(=O)(=O)c4cc(/C=C/C(=O)NCCN(C)C)ccc4OC)cc32)c1 (centres undefined) | 
 | 747 nM | COc1cccc(CC(=O)N(C)[C@@H]2CCCc3ccc(NS(=O)(=O)c4cc(/C=C/C(=O)Nc5ccncc5)ccc4OC)cc32)c1 | EC50 [3]: 154 nM; Ct [4]: 137 pmol/g; EC50 (Orexin receptor type 2 [5]): 457 nM; concentration [6]: 32 µM
 | 1760 nM | COc1cccc(CC(=O)N(C)C2CCCc3ccc(NS(=O)(=O)c4cc(CCC(=O)N(C)C)ccc4OC)cc32)c1 (centres undefined) | 
 |  | COc1cccc(CC(=O)N(C)[C@@H]2CCCc3ccc(NS(=O)(=O)c4cc(-c5cccc(C(=O)N(C)C)c5)ccc4OC)cc32)c1 | EC50 [3]: 174 nM; Ct [4]: 61.1 pmol/g; EC50 (Orexin receptor type 2 [5]): 69 nM; Kp [7]: 0.002; concentration [6]: 25 µM
 | 581 nM | COc1cccc(CC(=O)N(C)C2CCCc3ccc(NS(=O)(=O)c4cc(/C=C/C(N)=O)ccc4OC)cc32)c1 (centres undefined) | 
955 nM | 201 nM | COc1cccc(CC(=O)N(C)C2CCCc3ccc(NS(=O)(=O)c4cc(/C=C/C(=O)Nc5ccccn5)ccc4OC)cc32)c1 (centres undefined) | 
 | 15.3 nM | COc1cccc(CC(=O)N(C)C2CCCc3ccc(NS(=O)(=O)c4cc(/C=C/C(=O)Nc5ccncc5)ccc4OC)cc32)c1 (racemic) | 
146 nM | 607 nM | COc1cccc(CC(=O)N(C)C2CCCc3ccc(NS(=O)(=O)c4cc(C(=O)N(C)C)ccc4OC)cc32)c1 (centres undefined) | 
295 nM | 43.4 nM | COc1cccc(CC(=O)N(C)C2CCCc3ccc(NS(=O)(=O)c4cc(/C=C/C(=O)Nc5cccnc5)ccc4OC)cc32)c1 (centres undefined) | 
> 10000 nM | 476 nM | COCCNC(=O)/C=C/c1ccc(OC)c(S(=O)(=O)Nc2ccc3c(c2)C(N(C)C(=O)Cc2cccc(OC)c2)CCC3)c1 (centres undefined) | 
 | 1040 nM | COc1cccc(CC(=O)N(C)C2CCCc3ccc(NS(=O)(=O)c4cc(CC(=O)N(C)C)ccc4OC)cc32)c1 (centres undefined) | 
 |  | COc1ccc(-c2cccc(C(=O)N(C)C)c2)cc1S(=O)(=O)Nc1cccc(CCNC(=O)c2ccccc2-n2nccn2)c1 | EC50 [8]: 36000 nM
> 10000 nM | 1280 nM | COc1cccc(CC(=O)N(C)C2CCCc3ccc(NS(=O)(=O)c4cc(/C=C/C(=O)N(C)C)ccc4OC)cc32)c1 (centres undefined) | 
